# Earlier results in patent US20250224401A1, “METHODS OF DIAGNOSING B CELL MALIGNANCIES, DETECTING B CELL MALIGNANCY RELAPSE, AND TREATING THEREOF” (Rutgers, The State University of New Jersey, priority 2022, published 2025).
# Test system: cultured human malignant B cells
# Conditions: in vitro
smiles,measurement,value
C=CC(=O)N1CCC[C@@H](n2nc(-c3ccc(Oc4ccccc4)cc3)c3c(N)ncnc32)C1 [ibrutinib],cytotoxic effects on cultured human malignant B cells,moderate or minimal cytotoxic effects
